From US20150320770A1, “NOVEL COMPOSITIONS AND METHODS FOR TREATING PROSTATE CANCER” (Tokai Pharmaceuticals, Inc., priority 2011, published 2015)

Assay: API solubility assessment in common solvents
Type: physicochemical
Experimental: The solubility of the API was assessed in several common solvents systems to ensure obtaining the maximum API concentration for the spray drying process. […] Subsequently this binary solvent mixture was changed to the 2:1, methanol:acetone mixture due to long secondary drying times observed with the 2:1, methanol:THF system.

API Solubility (%) (2:1 Acetone:Methanol): 4.16%
API Solubility (%) (2:1 Methanol:Acetone): 7.28%
API Solubility (%) (2:1 Methanol:Tetrahydrofuran): 16.64%
API Solubility (%) (Acetone): 1.04%
API Solubility (%) (Ethanol): 4.68%
API Solubility (%) (Ethyl Acetate): 0%
API Solubility (%) (Methanol): 4.16%
API Solubility (%) (Tetrahydrofuran): 7.28%
SMILES: C[C@]12CC[C@H](O)CC1=CCC1C2CC[C@]2(C)C(n3cnc4ccccc43)=CCC12 (stereo partly drawn) [Compound (1), 3-β-Hydroxy17-(1H-benzimidazol-1-yl)androsta-5,16-diene]
